The text below walks through data of patent US7968526B2, “Antisense oligonucleotides directed to ribonucleotide reductase R2 and uses thereof in the treatment of cancer” (Lorus Therapeutics Inc., priority 2003, dated 2011).

For data set [1], the system named is CB7 Friend retrovirus-induced mouse Erythroleukaemia cells. The experiment in a line: Survival of SCID mice bearing mouse erythroleukaemia (CB7). The class given is in vivo. The note with it: 10 mg/kg i.v. every second day, stopped at day 71, untreated all died within 36 days.
The test system of data set [2] is MDA-CDDP-S4 human in vivo-selected Cisplatin-resistant breast adenocarcinoma cells. The experiment in a line: MDA-CDDP-S4 Cisplatin-resistant breast adenocarcinoma, fat pad, CB-17 SCID mice, combination with Taxol (2.4). Particulars: SEQ ID NO:1 10 mg/kg i.v. every other day, Taxol 10 mg/kg i.p. weekly; for Tumour weight as % of saline control: MDA-CDDP-S4 (breast), Cisplatin resistant, SCID. Further details: species or system human cells in mice. The protocol: BxPC-3 is a gemcitabine resistant call line. […] Gemcitabine was administered intravenously every three days at a dose of 100 mg/kg. Antitumour activities were estimated by the inhibition of tumour volume, which was measured with caliper. Each point represents mean tumour volume calculated from 10 animals per experimental group. […] Hela S3 is a hydroxyurea resistant cell line. […] Hydroxyurea was administered intraperitoneally every day at a dose of 250 mg/kg for 10 days. Cisplatin was administered intravenously once a week for three weeks at a dose of 4 mg/kg. Antitumour activities were estimated by the inhibition of tumour volume, which was measured with caliper. Each point represents mean tumour volume calculated from 10 animals per experimental group. […] Cisplatin was administered intravenously once a week for three weeks at a dose of 4 mg/kg. Taxol was administered intravenously once a week for three weeks at a dose of 10 mg/kg. Antitumour activities were estimated by the inhibition of tumour volume, which was measured with caliper. Each point represents mean tumour volume calculated from 10 animals per experimental group. […] Taxol was administered i.p. once a week at a dose of 10 mg/kg. Antitumour activities were estimated by the inhibition of tumour volume (FIG. 12A), which was measured with calipers. Each point represents mean tumour volume calculated from 10 animals per experimental group. Animals were sacrificed and tumour weights taken at the end of the study (FIG. 12C). […] Cisplatin was administered intravenously once a week for four weeks at a dose of 4 mg/kg. Taxol was administered intravenously once a week for four weeks at a dose of 20 mg/kg. Antitumour activities were estimated by the inhibition of tumour volume, which was measured with caliper. Each point represents mean tumour volume calculated from 9-10 animals per experimental group. […] Cisplatin was administered intravenously once a week for four weeks at a dose of 4 mg/kg. Antitumour activities were estimated by the inhibition of tumour volume, which was measured with caliper. Each point represents mean tumour volume calculated from 10 animals per experimental group. At the end of the study the animals were sacrificed and tumours weighed. […] Taxol was administered i.p. once a week at a dose of 10 mg/kg. Anti-tumour activity was estimated by the inhibition of tumour volume, which was measured with caliper. Each point represents mean tumour volume calculated from 10 animals per experimental group. In addition animals were sacrificed and tumour weights taken at the end of the study. […] CPT-11 was administered i.p. for 5 days at a dose of 20 mg/kg/day. Antitumour activities were estimated by the inhibition of tumour volume, which was measured with caliper. Each point represents mean tumour volume calculated from 10 animals per experimental group. Tumour weights were measured after animals were sacrificed at the end of the treatment. These cells are not resistant to CPT-11 which was used as a positive control.

In data set [3] the test system is SK-OV-3 human ovarian cancer cells. The data set can be described thus: SK-OV-3 ovary tumour growth in Balb/c nude mice (3.4). The class given is in vivo, human cells in mice. The protocol: (§1) Treatments lasted for 14 days thereafter. Antitumour activities were estimated by the inhibition of tumour volume, which was measured with a caliper on four different occasions over the treatment period. Each point represents mean tumour volume calculated from 5 animals per experimental group. […] Control animals (control) received saline alone for the same period. At the end of the treatments, the animals were sacrificed, tumours were excised and their weights were measured. Each bar represents mean tumour weight calculated from 6 animals per experimental group. […] Treatments lasted for 24 days thereafter. Antitumour activities were estimated by the inhibition of tumour volume, which was measured with a caliper at two-day intervals over the treatment period. Each point represents mean tumour volume calculated from 4 animals per experimental group. […] Treatments lasted for 24 days thereafter. Antitumour activities were estimated by the inhibition of tumour volume, which was measured with a caliper at two-day intervals over the treatment period. Each point represents mean tumour volume calculated from 4 animals per experimental group. […] Each point represents mean tumour volume calculated from 5 animals per experimental group. […] Antitumour activities were estimated by the inhibition of tumour volume, which was measured with a caliper on four different occasions over 16-day period. Each point represents mean tumour volume calculated from 5 animals per experimental group. […] Antitumour activities were estimated by the inhibition of tumour volume, which was measured with a caliper at two-day intervals over the treatment period. Each point represents mean tumour volume calculated from 5 animals per experimental group. […] Antitumour activities were estimated by the inhibition of tumour volume, which was measured with a caliper at various time intervals over the span of 30 days. Each point represents mean tumour volume calculated from 6 animals per experimental group. […] Antitumour activities were estimated by the inhibition of tumour volume, which was measured with a caliper. […]

In data set [4] the test system is R3 mouse fibrosarcoma cells. The data set can be described thus: R3 mouse fibrosarcoma tumour growth in C3H mice. The class given is in vivo. The protocol:
Treatments lasted for 14 days thereafter. Anti-tumour activities were estimated by the inhibition of tumour volume, which was measured with a calliper at two-day intervals starting from day 9. Each point in FIG. 27A represents the mean tumour volume calculated from 6-7 animals per experimental group. […] SEQ ID NO:1 had significant anti-tumour activity compared to saline (P=0.0006), scrambled (P=0.0001) and mismatched (0.0002) controls.
At the end of the treatments, the animals were sacrificed, tumours were excised and their weights were measured. Each bar in FIG. 27C represents mean tumour weight and standard error calculated from 6-8 animals per experimental group. P values compared to saline were as follows: 0.5 mg/kg (P=0.04), 2 mg/kg (P=0.0001), 5 mg/kg (P=0.0015), 10 mg/kg (P=0.0001), 30 mg/kg (P=0.0001).

Data set [5] deals with SIHA human cervical cancer cells. The experiment in a line: SIHA cervical tumour growth in SCID mice (3.10). The data set is classed as in vivo, human cells in mice. On the procedure:
as §1

Entries after “also recorded” stand apart in the source; their conditions may differ.

As to “5′-GGCTAAATCGCTCCACCAAG-3′ (all phosphorothioate, sugars by position and methylation of C not given here) [SEQ ID NO: 1, fully phosphorothioated antisense oligonucleotide that hybridizes to the coding region of R2 mRNA]”, the Survival of mice result in data set [1] is “survived beyond day 71 except one mouse, which died at day 22”. Moreover, the “Tumour weight as % of saline control” value in data set [2] (first of two printed values (study and repeat)) came out at 18%; in data set [2] (second of two printed values (study and repeat)) it was 41%. Further, the “Antitumour effect (FIG. 12)” value in data set [2] (MDA-CDDP-S4 Cisplatin-resistant, CB-17 SCID mice) is “significant reduction of tumour weight compared to saline control; also recorded: superior to the inhibitory effects observed with Taxol”. For the same substance, the “Inhibition of tumour weight” value in data set [3] (Human Ovary Adenocarcinoma) is given as “tumour weight of approximately 50%”; in data set [4] (Mouse Fibrosarcoma) it was about 80%; in data set [5] (Human Cervical Carcinoma^2), about 90%. Besides, the “Inhibition of tumour size” value in data set [3] (Human Ovary Adenocarcinoma in Balb/c Nu-Nu mice, Days 19 to 25 after tumour implantation) was “Inhibition of tumour size by approximately 35%”; in data set [5] (Human Cervical Carcinoma^2 in SCID mice, Day 22 after tumour implantation) it was “Inhibition of tumour size by approximately 90%”. In addition, the “Inhibitory effect on tumour growth (tumour volume, FIG. 18C)” value in data set [3] (SK-OV-3, Balb/c nude mice, 10 mg/kg i.v. every other day, 22 days) is “statistically significant inhibitory effects on the growth of human ovary adenocarcinoma cells”. In addition, the “Dose dependence of tumour weight” value in data set [4] (Mouse Fibrosarcoma in C3H mice at doses of 0.5 to 30 mg/kg) is “Dose-dependent decrease in tumour weight in”. Moreover, the “Inhibition of tumour volume” value in data set [4] (Mouse Fibrosarcoma in C3H mice, Day 15 after tumour implantation) is “approximately 80% on Day 15 after tumour laimpntation”. For the same substance, the “Anti-tumour efficacy (tumour volume, FIG. 27A)” value in data set [4] (R3, C3H mice, 5 mg/kg i.v. every other day, 14 days) is “significant anti-tumour efficacy compared to saline, scrambled and mismatched controls”. In data set [4] (R3, C3H mice, 0.5-30 mg/kg), the “Dose dependence of anti-tumour activity (FIG. 27C)” value was “dose-dependent anti-tumour activity”. For the same substance, the “Inhibitory effect on tumour growth (tumour volume and weight, FIG. 22)” value in data set [5] (SIHA, SCID mice, 10 mg/kg i.v. every other day, 16 days) is listed as “strong inhibitory effects on the growth of human cervical carcinoma”.
